Results published in the supplement of paper PMC10307832.

Tests used:
Experiment in all cases: relative viability (nuclei count vs DMSO), 5 days (fraction); higher = more cells survive
[1] = compound: C1CNCCC1C2=CC(=NN2)C3=CC=NC=C3 + C[C@@H](Oc1cc(-c2cnn(C3CCNCC3)c2)cnc1N)c1c(Cl)ccc(F)c1Cl [Crizotinib] (partner 1 µM)
In short: (§1)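 Nuclei were stained with Hoechst during a one-step fixation (final 0.05% Triton X-100, 1% formaldehyde, 1 ug/ml Hoechst) carried out 5 days after dosing, then counted on 4× images. The cells, lung cancer lines in 1536-well plates, had been dosed by pin tool the day after seeding with one drug alone or a fixed anchor-drug dose plus five library-drug doses (not always all listed) in √10 steps. Relative viability is the nuclei count in treated wells divided by that in vehicle wells, and each value is the median of duplicate plates.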

[2] = compound: C1CNCCC1C2=CC(=NN2)C3=CC=NC=C3 + C[C@]1(O)C[C@@H](c2nc(-c3ccc4ccc(-c5ccccc5)nc4c3)c3c(N)nccn32)C1 [Linsitinib] (partner 1 µM)
In short: as §1

[3] = compound: C1CNCCC1C2=CC(=NN2)C3=CC=NC=C3 + Cc1nc(NC(=O)N2CCC[C@H]2C(N)=O)sc1-c1ccnc(C(C)(C)C(F)(F)F)c1 [Alpelisib] (partner 2 µM)
In short: as §1

[4] = compound: C1CNCCC1C2=CC(=NN2)C3=CC=NC=C3 + O=C(c1cc(Cc2n[nH]c(=O)c3ccccc23)ccc1F)N1CCN(C(=O)C2CC2)CC1 [Olaparib] (partner 8 µM)
In short: as §1

Cell Line	relative viability ([1]; first compound 0.08 µM)	relative viability ([1]; first compound 0.8 µM)	relative viability ([1]; first compound 2.53 µM)	relative viability ([1]; first compound 8 µM)	relative viability ([2]; first compound 0.08 µM)	relative viability ([2]; first compound 0.8 µM)	relative viability ([2]; first compound 2.53 µM)	relative viability ([2]; first compound 8 µM)	relative viability ([3]; first compound 0.08 µM)	relative viability ([3]; first compound 0.8 µM)	relative viability ([3]; first compound 2.53 µM)	relative viability ([3]; first compound 8 µM)	relative viability ([4]; first compound 0.08 µM)	relative viability ([4]; first compound 0.8 µM)	relative viability ([4]; first compound 2.53 µM)	relative viability ([4]; first compound 8 µM)
NCI-H1993	0.867	0.876	0.767	0.896	0.748	0.67	0.732	0.798	0.654	0.668	0.699	0.669	0.937	0.918	1.02	1.21
NCI-H2009	0.96	1.08	1.08	1.03	1.2	1.18	1.25	1.22	1.25	1.16	1.13	1.14	0.683	0.749	0.648	0.728
NCI-H2023	0.427	0.688	0.738	0.709	0.62	0.671	0.629	0.647	0.539	0.5	0.573	0.613	0.354	0.494	0.488	0.538
NCI-H2085	0.976	0.938	0.973	0.825	0.975	0.732	1.1	0.95	0.926	0.514	1.02	0.98	0.903		0.807	0.746
NCI-H2087	0.837	1.02	0.976	0.666	1.04	1.09	0.973	0.96	0.862	1.07	1.07	0.985	0.522	0.545	0.528	0.633
NCI-H2126	0.952	1.05	1.01	0.979	0.718	0.636	0.789	0.748	0.761	0.634	0.777	0.752	0.933	0.875	0.923	0.939
NCI-H2228	0.566	0.428	0.486	0.482	0.734	0.869	0.503	0.811	0.769	0.872	0.851	0.617	0.617	0.747	0.575	0.549
NCI-H2347	0.681	0.676	0.939	0.781	0.916	0.961	1.06	0.936	0.989	0.938	1.17	1.01	0.534	0.514	0.477	0.571
NCI-H2405	0.87	0.777	0.873	0.825	0.979	0.771	1.07	0.913	0.792	0.62	0.875	0.686	0.843	0.952	0.894	0.831
NCI-H3122	0.303	0.265	0.255	0.283	0.981	0.981	1.06	1.04	0.87	0.81	0.799	0.753	0.571	0.6	0.583	0.61
PC-3 [JPC-3]	0.941	1.07	0.971	0.953	0.913	0.975	0.936	0.896	1	1.03	1.05	1.02	1.09	1.24	1.11	1.15
PC-14	0.917	0.874	1.04	0.835	0.997	0.992	1.03	0.941	0.938	0.913	1.1	0.923	0.21	0.273	0.228	0.279
RERF-LC-KJ	0.872	0.894	0.912	0.759	0.925	0.931	0.903	0.903	0.803	0.709	0.963	0.89	0.849	0.873	0.945	0.954
SK-LU-1	1.03	0.936	0.989	0.947	1.05	1.07	1.19	1.23	1.08	1.06	1.05	0.942	0.437	0.425	0.467	0.439
SK-MES-1	1.03	0.995	0.992	0.94	1.07	1.1	1.15	0.953	0.961	0.688	0.903	0.885	0.553	0.849	0.714	0.684
SW 1573	0.805	0.713	0.993	0.795	0.815	0.786	0.902	0.952	0.722	0.625	0.774	0.755		0.612	0.655	0.626
